Experimental data: PubChem BioAssay (NCI)
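96-well plates; 48 h exposure; 5 concentrations. Endpoints by linear interpolation between flanking doses. Not reached: highest tested concentration assigned. Abbreviation: GI50, concentration required for 50% inhibition of growth. TGI: total growth inhibition.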

Tests used:
Assay in all cases: growth of human tumour cells (NCI), 48 h
HOP-62 NSCLC = test system: HOP-62 NSCLC
SW-620 colon = test system: SW-620 colon
SR leukemia = test system: SR leukemia
HCT-15 colon = test system: HCT-15 colon
NCI-H23 lung = test system: NCI-H23 lung
NCI-H226 lung = test system: NCI-H226 lung
KM12 colon = test system: KM12 colon
DU-145 prostate = test system: DU-145 prostate
OVCAR-4 ovarian = test system: OVCAR-4 ovarian
SF-539 CNS = test system: SF-539 CNS
NCI-H460 lung = test system: NCI-H460 lung
MDA-MB-231 breast = test system: MDA-MB-231 breast
UO-31 renal = test system: UO-31 renal
T-47D breast = test system: T-47D breast
SK-MEL-2 melanoma = test system: SK-MEL-2 melanoma
A549 NSCLC = test system: A549 NSCLC
PC-3 prostate = test system: PC-3 prostate
HCC-2998 colon = test system: HCC-2998 colon
TK-10 renal = test system: TK-10 renal
786-0 renal = test system: 786-0 renal
SK-OV-3 ovarian = test system: SK-OV-3 ovarian
HL-60(TB) leukemia = test system: HL-60(TB) leukemia
ACHN renal = test system: ACHN renal
EKVX NSCLC = test system: EKVX NSCLC
RPMI-8226 leukemia = test system: RPMI-8226 leukemia
SK-MEL-28 melanoma = test system: SK-MEL-28 melanoma
SK-MEL-5 melanoma = test system: SK-MEL-5 melanoma
MOLT-4 leukemia = test system: MOLT-4 leukemia
NCI/ADR-RES ovarian = test system: NCI/ADR-RES ovarian
SF-295 CNS = test system: SF-295 CNS
CCRF-CEM leukemia = test system: CCRF-CEM leukemia
K-562 leukemia = test system: K-562 leukemia
HS 578T breast = test system: HS 578T breast
UACC-257 melanoma = test system: UACC-257 melanoma
CAKI-1 renal = test system: CAKI-1 renal
HCT-116 colon = test system: HCT-116 colon
A498 renal = test system: A498 renal
UACC-62 melanoma = test system: UACC-62 melanoma
HT29 colon = test system: HT29 colon
RXF 393 renal = test system: RXF 393 renal
SNB-19 CNS = test system: SNB-19 CNS
MCF7 breast = test system: MCF7 breast
MALME-3M melanoma = test system: MALME-3M melanoma
IGROV1 ovarian = test system: IGROV1 ovarian
LOX IMVI melanoma = test system: LOX IMVI melanoma
HOP-92 NSCLC = test system: HOP-92 NSCLC
OVCAR-3 ovarian = test system: OVCAR-3 ovarian
U251 CNS = test system: U251 CNS
BT-549 breast = test system: BT-549 breast
OVCAR-8 ovarian = test system: OVCAR-8 ovarian
NCI-H522 lung = test system: NCI-H522 lung

## CN(C)c1ccc(/C=N/Nc2nc(N/N=C/c3ccc(N(C)C)cc3)nc(N3CCCCC3)n2)cc1
HOP-62 NSCLC
  GI50: 2.19 µM
  TGI: 5.05 µM
SW-620 colon
  GI50: 3.17 µM
  TGI: > 100 µM
SR leukemia
  GI50: 0.369 µM
  TGI: > 100 µM
HCT-15 colon
  GI50: 1.87 µM
  TGI: 4.62 µM
NCI-H23 lung
  GI50: 3.49 µM
  TGI: > 100 µM
NCI-H226 lung
  GI50: 2.19 µM
  TGI: 5.64 µM
KM12 colon
  GI50: 2.84 µM
  TGI: 8.49 µM
DU-145 prostate
  GI50: 3.92 µM
  TGI: > 100 µM
OVCAR-4 ovarian
  GI50: 5.03 µM
  TGI: > 100 µM
SF-539 CNS
  GI50: 1.99 µM
  TGI: 3.97 µM
NCI-H460 lung
  GI50: 3.21 µM
  TGI: > 100 µM
MDA-MB-231 breast
  GI50: 1.8 µM
  TGI: 3.4 µM
UO-31 renal
  GI50: 1.72 µM
  TGI: 3.7 µM
T-47D breast
  GI50: 2.18 µM
  TGI: 5.54 µM
SK-MEL-2 melanoma
  GI50: 1.99 µM
  TGI: 3.72 µM
A549 NSCLC
  GI50: 2.99 µM
  TGI: > 100 µM
PC-3 prostate
  GI50: 2.57 µM
  TGI: 7.91 µM
HCC-2998 colon
  GI50: 2.4 µM
  TGI: 6.67 µM
TK-10 renal
  GI50: 2.54 µM
  TGI: 7.28 µM
786-0 renal
  GI50: 1.7 µM
  TGI: 3.62 µM
SK-OV-3 ovarian
  GI50: 2.17 µM
  TGI: 4.88 µM
HL-60(TB) leukemia
  GI50: 2.2 µM
  TGI: 6.71 µM
ACHN renal
  GI50: 2.68 µM
  TGI: 7.68 µM
EKVX NSCLC
  GI50: 3.13 µM
  TGI: > 100 µM
RPMI-8226 leukemia
  GI50: 1.92 µM
  TGI: 5.1 µM
SK-MEL-28 melanoma
  GI50: 2 µM
  TGI: 4.35 µM
SK-MEL-5 melanoma
  GI50: 1.73 µM
  TGI: 3.15 µM
MOLT-4 leukemia
  GI50: 2.87 µM
  TGI: > 100 µM
NCI/ADR-RES ovarian
  GI50: 3.19 µM
  TGI: 17 µM
SF-295 CNS
  GI50: 1.96 µM
  TGI: 3.79 µM
CCRF-CEM leukemia
  GI50: 1.21 µM
  TGI: > 100 µM
K-562 leukemia
  GI50: 0.895 µM
  TGI: > 100 µM
HS 578T breast
  GI50: 2.09 µM
  TGI: 5.57 µM
UACC-257 melanoma
  GI50: 1.83 µM
  TGI: 3.67 µM
CAKI-1 renal
  GI50: 2.08 µM
  TGI: 5.02 µM
HCT-116 colon
  GI50: 1.64 µM
  TGI: 3.75 µM
A498 renal
  GI50: 1.58 µM
  TGI: 3.51 µM
UACC-62 melanoma
  GI50: 1.84 µM
  TGI: 3.78 µM
HT29 colon
  GI50: 1.76 µM
  TGI: 3.36 µM
RXF 393 renal
  GI50: 2.12 µM
  TGI: 6.12 µM
SNB-19 CNS
  GI50: 3.33 µM
  TGI: > 100 µM
MCF7 breast
  GI50: 2.86 µM
  TGI: > 100 µM
MALME-3M melanoma
  GI50: 1.86 µM
  TGI: 3.4 µM
IGROV1 ovarian
  GI50: 2.96 µM
  TGI: > 100 µM
LOX IMVI melanoma
  GI50: 1.61 µM
  TGI: 3.19 µM
HOP-92 NSCLC
  GI50: 1.47 µM
  TGI: 3.25 µM
OVCAR-3 ovarian
  GI50: 2.28 µM
  TGI: 5.03 µM
U251 CNS
  GI50: 2.88 µM
  TGI: 14.3 µM
BT-549 breast
  GI50: 15.5 µM
  TGI: 58.6 µM
OVCAR-8 ovarian
  GI50: 3.21 µM
  TGI: > 100 µM
NCI-H522 lung
  GI50: 2.06 µM
  TGI: 4.56 µM
